Experimental findings from US8987249B2, “Substituted 2-Aza-bicyclo[2.2.1]heptane-3-carboxylic acid (benzyl-cyano-methyl)-amides inhibitors of Cathepsin C” (Boehringer Ingelheim International GmbH, priority 2013, dated 2015) are described below.

Broadly, the IC50 is the point on the concentration scale where inhibition reaches its midpoint. By half-life is commonly meant how long it takes for the measured level to halve. A low value points to rapid decline.

Data set [1] has as its target recombinant human DPPI (Cathepsin C) (Homo sapiens (Human), UniProt P53634). Kind of data set: Inhibition of human DPPI (Cathepsin C). In kind it is biochemical. The conditions noted are these: substrate Gly-Arg-AMC. Summed up:
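Recombinant human DPPI in MES buffer pH 6.0 (5 mM DTT, 0.1% BSA); fluorogenic substrate at 50 μM final, 30 min at room temperature, stopped with 1 μM Gly-Phe-DMK. Background-subtracted fluorescence expressed as percent of vehicle control; IC50 derived.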

Data set [2] deals with recombinant human Cathepsin K (Homo sapiens (Human), UniProt P43235). The experiment in a line: Inhibition of human Cathepsin K. The following applies: substrate Z-Gly-Pro-Arg-AMC. In kind it is biochemical. In outline: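 Proenzyme activated in pH 3.5 sodium acetate for 30 min at room temperature. Enzyme (2 ng/μL final) preincubated 10 min with compound (0.1 nM–100 μM, 1% DMSO) in pH 5.5 acetate/EDTA/L-cysteine buffer, then reacted 60 min at room temperature with Z-Gly-Pro-Arg-AMC. Stopped with 1 μM E64; fluorescence Ex 360/Em 460 nm; IC50 from background-subtracted percent of vehicle control.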

Data set [3] can be described thus: in vitro. The following applies: human, microsomes, pH 7.6.

Structures are written as SMILES.

Chain of recombinant human Cathepsin K (P43235 115-329): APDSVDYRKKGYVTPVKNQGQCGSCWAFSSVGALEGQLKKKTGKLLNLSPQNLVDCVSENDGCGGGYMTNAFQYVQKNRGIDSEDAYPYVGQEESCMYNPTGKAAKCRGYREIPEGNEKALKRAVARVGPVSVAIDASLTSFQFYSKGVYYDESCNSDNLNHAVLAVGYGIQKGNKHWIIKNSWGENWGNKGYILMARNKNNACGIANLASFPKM
Chain of recombinant human DPPI (Cathepsin C) (P53634 231-394): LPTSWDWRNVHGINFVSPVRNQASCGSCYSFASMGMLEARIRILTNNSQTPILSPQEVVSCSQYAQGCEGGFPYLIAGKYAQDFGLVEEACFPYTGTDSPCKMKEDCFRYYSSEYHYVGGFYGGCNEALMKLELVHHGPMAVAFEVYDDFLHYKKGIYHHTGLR
Chain of recombinant human DPPI (Cathepsin C) (P53634 395-463): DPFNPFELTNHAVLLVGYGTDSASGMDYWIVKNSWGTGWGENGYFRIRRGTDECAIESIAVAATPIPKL
Chain of recombinant human DPPI (Cathepsin C) (P53634 25-134): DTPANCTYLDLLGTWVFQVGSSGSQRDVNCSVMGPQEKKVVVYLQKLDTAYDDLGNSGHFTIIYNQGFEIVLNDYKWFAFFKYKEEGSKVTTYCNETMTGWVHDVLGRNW

In the case of `N#C[C@H](Cc1ccc(C2=CCN(C3CCOC3)CC2)cc1F)NC(=O)[C@H]1N[C@@H]2CC[C@H]1C2` (stereo partly drawn) [Example 332], the IC50 in data set [1] stood at 0.0129 µM; in data set [2] it was 6.2 µM. The same compound had a half-life at 1 μM in data set [3] of 1.67 h.
Regarding `CN1CC=C(c2ccc(C[C@@H](C#N)NC(=O)[C@H]3N[C@@H]4CC[C@H]3C4)c(F)c2)CC1` [Example 223], the half-life at 1 μM in data set [3] was more than 2.17 h.
As for `CN1C2CCC1CN(c1ccc(C[C@@H](C#N)NC(=O)[C@H]3N[C@@H]4CC[C@H]3C4)c(F)c1)C2` [Example 333], the IC50 in data set [1] amounted to 0.0153 µM; in data set [2], 2.4 µM. This compound came in with a half-life at 1 μM in data set [3] of more than 2.17 h.
Regarding `CN1CC2CCC(C1)N2c1ccc(C[C@@H](C#N)NC(=O)[C@H]2N[C@@H]3CC[C@H]2C3)c(F)c1` [Example 328], the values for the IC50 in data set [1] and in data set [2] were 0.0042 µM and 7.7 µM, respectively. This compound also displayed a half-life at 1 μM in data set [3] of more than 2.17 h.
On to `N#C[C@H](Cc1ccc(C2=CC3COCCN3CC2)cc1F)NC(=O)[C@H]1N[C@@H]2CC[C@H]1C2` (stereo partly drawn) [Example 282], for which the IC50 worked out at 0.0037 µM in data set [1] and 1.8 µM in data set [2]. The compound also displayed a half-life at 1 μM in data set [3] of more than 2.17 h.
On to `CN(C)CCN1C(=O)Cc2ccc(-c3ccc(C[C@@H](C#N)NC(=O)[C@H]4N[C@@H]5CC[C@H]4C5)c(F)c3)cc21` [Example 278], for which the IC50 in data set [1] stood at 0.001 µM; in data set [2] it was 1.2 µM. The compound further had a half-life at 1 μM in data set [3] of more than 2.17 h.
As for `CN1CCC(C)(c2ccc(C[C@@H](C#N)NC(=O)[C@H]3N[C@@H]4CC[C@H]3C4)c(F)c2)CC1` [Example 321], the half-life at 1 μM in data set [3] is more than 2.17 h.
On to `N#C[C@H](Cc1ccc(N2CCNCC2)cc1F)NC(=O)[C@H]1N[C@@H]2CC[C@H]1C2` [Example 204], for which the IC50 in data set [1] came to 0.0245 µM. Moreover, the half-life at 1 μM in data set [3] is more than 2.17 h.
Regarding `CCN1CC=C(c2ccc(C[C@@H](C#N)NC(=O)[C@H]3N[C@@H]4CC[C@H]3C4)c(F)c2)CC1` [Example 320], the IC50 in data set [1] is 0.0096 µM. The compound also gave a half-life at 1 μM in data set [3] of more than 2.17 h.
